Results published in US12077503B2, “Substituted cyclic amides and their use as herbicides” (FMC CORPORATION, priority 2015, dated 2024).
Like-named read-outs stand apart in the source and are kept apart here.

Tests used:
Type in all cases: in vivo
[1] = system: wheat (Triticum aestivum); experiment: Test A postemergence; settings: Triticum aestivum, post-emergence, 240 h, 125 g ai/ha
Method in brief: (§1)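 Visual injury, scored on a 0–100 scale relative to untreated controls, was recorded about 10 d after application. Treatments were a preemergence soil spray over planted seeds or a postemergence spray on plants at the one- to two-leaf stage, 2 to 10 cm tall, all in loam soil–sand blend in the greenhouse.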

[2] = system: ragweed (common ragweed, Ambrosia elatior); experiment: Test A postemergence; settings: Ambrosia artemisiifolia, post-emergence, 240 h, 125 g ai/ha
Method in brief: as §1

Kochia (Kochia scoparia) [3] = experiment: Test A postemergence; settings: Bassia scoparia, post-emergence, 240 h, 125 g ai/ha
Method in brief: as §1

[4] = system: blackgrass (Alopecurus myosuroides); experiment: Test A postemergence; settings: Alopecurus myosuroides, post-emergence, 240 h, 125 g ai/ha
Method in brief: as §1

[5] = system: ryegrass, Italian (Italian ryegrass, Lolium multiflorum); experiment: Test A postemergence; settings: Lolium multiflorum, post-emergence, 240 h, 125 g ai/ha
Method in brief: as §1

[6] = system: ducksalad (Heteranthera limosa); experiment: Test B flooded paddy test; settings: Heteranthera limosa, Flood, 250 g ai/ha; scale of 0 to 100 where 0 is no effect and 100 is complete control; read-out: Ducksalad plant response rating
Method in brief: (§2)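 Compound goes directly into floodwater once pots are flooded 3 cm above soil, targeting plants at two leaves; the water depth is then held for the test duration. Plants sit 13–15 d in a greenhouse and are rated visually, 100 denoting complete control.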

rice (Oryra sativa) = experiment: Test B flooded paddy test; settings: Oryza sativa, Flood, 250 g ai/ha; scale of 0 to 100 where 0 is no effect and 100 is complete control; read-out: Rice plant response rating
Method in brief: as §2

[7] = system: sedge, umbrella (small-flower umbrella sedge, Cyperus difformis); experiment: Test B flooded paddy test; settings: Cyperus difformis, Flood, 250 g ai/ha; scale of 0 to 100 where 0 is no effect and 100 is complete control; read-out: Sedge, Umbrella plant response rating
Method in brief: as §2

[8] = system: barnyardgrass (Echinochloa crus-galli); experiment: Test B flooded paddy test; settings: Echinochloa crus-galli, Flood, 250 g ai/ha; scale of 0 to 100 where 0 is no effect and 100 is complete control; read-out: Barnyardgrass plant response rating
Method in brief: as §2

[9] = system: giant foxtail (Setaria faberii); experiment: Test A preemergence; settings: Setaria faberi, pre-emergence, 240 h; for pest or weed control at 125 g/ha: 125 g ai/ha, preemergence, 0 to 100 scale where 0 is no effect and 100 is complete control, read-out: Foxtail, Giant plant response rating; for pest or weed control at 500 g/ha: 500 g ai/ha, Preemergence, visual injury vs untreated controls after approximately 10 d, read-out: Foxtail, Giant plant response rating (0 to 100 scale where 0 is no effect and 100 is complete control)
Method in brief: as §1

[10] = system: ragweed (common ragweed, Ambrosia elatior); experiment: Test A preemergence; settings: Ambrosia artemisiifolia, pre-emergence, 240 h; for pest or weed control at 125 g/ha: 125 g ai/ha, preemergence, 0 to 100 scale where 0 is no effect and 100 is complete control, read-out: Ragweed plant response rating; for pest or weed control at 500 g/ha: 500 g ai/ha, Preemergence, visual injury vs untreated controls after approximately 10 d, read-out: Ragweed plant response rating (0 to 100 scale where 0 is no effect and 100 is complete control)
Method in brief: as §1

Kochia (Kochia scoparia) [11] = experiment: Test A preemergence; settings: Bassia scoparia, pre-emergence, 240 h; for pest or weed control at 500 g/ha: 500 g ai/ha, Preemergence, visual injury vs untreated controls after approximately 10 d, read-out: Kochia plant response rating (0 to 100 scale where 0 is no effect and 100 is complete control); for pest or weed control at 125 g/ha: 125 g ai/ha, preemergence, 0 to 100 scale where 0 is no effect and 100 is complete control, read-out: Kochia plant response rating
Method in brief: as §1

[12] = system: barnyardgrass (Echinochloa crus-galli); experiment: Test A preemergence; settings: Echinochloa crus-galli, pre-emergence, 240 h; for pest or weed control at 125 g/ha: 125 g ai/ha, preemergence, 0 to 100 scale where 0 is no effect and 100 is complete control, read-out: Barnyardgrass plant response rating; for pest or weed control at 500 g/ha: 500 g ai/ha, Preemergence, visual injury vs untreated controls after approximately 10 d, read-out: Barnyardgrass plant response rating (0 to 100 scale where 0 is no effect and 100 is complete control)
Method in brief: as §1

[13] = system: pigweed (Amaranthus retroflexus); experiment: Test A preemergence; settings: Amaranthus retroflexus, pre-emergence, 240 h; for pest or weed control at 125 g/ha: 125 g ai/ha, preemergence, 0 to 100 scale where 0 is no effect and 100 is complete control, read-out: Pigweed plant response rating; for pest or weed control at 500 g/ha: 500 g ai/ha, Preemergence, visual injury vs untreated controls after approximately 10 d, read-out: Pigweed plant response rating (0 to 100 scale where 0 is no effect and 100 is complete control)
[14] = system: ryegrass, Italian (Italian ryegrass, Lolium multiflorum); experiment: Test A preemergence; settings: Lolium multiflorum, pre-emergence, 240 h; for pest or weed control at 125 g/ha: 125 g ai/ha, preemergence, 0 to 100 scale where 0 is no effect and 100 is complete control, read-out: Ryegrass, Italian plant response rating; for pest or weed control at 500 g/ha: 500 g ai/ha, Preemergence, visual injury vs untreated controls after approximately 10 d, read-out: Ryegrass, Italian plant response rating (0 to 100 scale where 0 is no effect and 100 is complete control)
Method in brief: as §1

[15] = Postemergence, visual injury after approximately 10 d, 0 to 100 scale where 0 is no effect and 100 is complete control, read-out: Plant response rating, Wheat
[16] = Postemergence, visual injury after approximately 10 d, 0 to 100 scale where 0 is no effect and 100 is complete control, read-out: Plant response rating, Ragweed
[17] = Postemergence, visual injury after approximately 10 d, 0 to 100 scale where 0 is no effect and 100 is complete control, read-out: Plant response rating, Kochia
[18] = Postemergence, visual injury after approximately 10 d, 0 to 100 scale where 0 is no effect and 100 is complete control, read-out: Plant response rating, Blackgrass
[19] = Postemergence, visual injury after approximately 10 d, 0 to 100 scale where 0 is no effect and 100 is complete control, read-out: Plant response rating, Ryegrass, Italian

| Structure (SMILES) | pest or weed control at 250 g/ha [6] [%] | pest or weed control at 250 g/ha (rice (Oryra sativa)) [%] | pest or weed control at 250 g/ha [7] [%] | pest or weed control at 250 g/ha [8] [%] | pest or weed control at 125 g/ha [9] [%] | pest or weed control at 500 g/ha [9] [%] | pest or weed control at 125 g/ha [10] [%] | pest or weed control at 500 g/ha [10] [%] | pest or weed control at 500 g/ha (Kochia (Kochia scoparia) [11]) [%] | pest or weed control at 125 g/ha [12] [%] | pest or weed control at 500 g/ha [12] [%] | pest or weed control at 125 g/ha [13] [%] | pest or weed control at 500 g/ha [13] [%] | pest or weed control at 125 g/ha [14] [%] | pest or weed control at 500 g/ha [14] [%] | plant injury at 125 g/ha [1, 15] [%] | pest or weed control at 125 g/ha [2, 16] [%] | pest or weed control at 125 g/ha (Kochia (Kochia scoparia) [3]; [17]) [%] | pest or weed control at 125 g/ha [4, 18] [%] | pest or weed control at 125 g/ha [5, 19] [%] | other results |
| --- | --- | --- | --- | --- | --- | --- | --- | --- | --- | --- | --- | --- | --- | --- | --- | --- | --- | --- | --- | --- | --- |
| CN1C[C@H](c2cc(F)c(C(F)(F)F)c(F)c2)[C@@H](C(=O)Nc2ccccc2F)C1=O [Compound 899] | 10 | 0 | 0 | 55 | 90 | 90 | 20 | 60 | 70 | 90 | 90 | 20 | 40 | 30 | 20 | – | – | – | – | – | plant injury at 125 g/ha ([1]; postemergence, visual injury rating after approximately 10 d, read-out: Wheat plant response rating (0 to 100 scale, 0 no effect, 100 complete control)): 30%; pest or weed control at 125 g/ha ([2]; postemergence, visual injury rating after approximately 10 d, read-out: Ragweed plant response rating (0 to 100 scale, 0 no effect, 100 complete control)): 20%; pest or weed control at 125 g/ha (Kochia (Kochia scoparia) [3]; postemergence, visual injury rating after approximately 10 d, read-out: Kochia plant response rating (0 to 100 scale, 0 no effect, 100 complete control)): 0%; pest or weed control at 125 g/ha ([4]; postemergence, visual injury rating after approximately 10 d, read-out: Blackgrass plant response rating (0 to 100 scale, 0 no effect, 100 complete control)): 40%; pest or weed control at 125 g/ha ([5]; postemergence, visual injury rating after approximately 10 d, read-out: Ryegrass, Italian plant response rating (0 to 100 scale, 0 no effect, 100 complete control)): 30% |
| COc1c(F)ccc([C@H]2CNC(=O)[C@@H]2C(=O)Nc2ccccc2S(C)(=O)=O)c1Cl [Compound 916] | 100 | 0 | 0 | 0 | 70 | 80 | 0 | 70 | 60 | 30 | 80 | 0 | 20 | 0 | 30 | 0 | 0 | 0 | 0 | 0 | pest or weed control at 125 g/ha (Kochia (Kochia scoparia) [11]): 40% |
| CN1CC[C@H](c2cccc(Cl)c2)[C@@H](C(=O)Nc2ccccc2F)C1=O [Compound 922] | 0 | 0 | 0 | 0 | 90 | 90 | 0 | 0 | 0 | 60 | 80 | 0 | 0 | 20 | 40 | 0 | 0 | 0 | 0 | 0 | pest or weed control at 125 g/ha (Kochia (Kochia scoparia) [11]): 0% |
| CN1CC[C@H](c2cccc(Cl)c2)[C@@H](C(=O)Nc2ccccc2S(C)(=O)=O)C1=O [Compound 923] | 0 | 0 | 0 | 0 | 0 | 70 | 0 | 0 | 0 | 0 | 70 | 0 | 0 | 0 | 0 | 0 | 0 | 0 | 0 | 0 | pest or weed control at 125 g/ha (Kochia (Kochia scoparia) [11]): 0% |
